In US8501755B2, “Tetrahydropyridothienopyrimidine compounds and methods of use thereof” (Bayer Intellectual Property GmbH, priority 2006, dated 2013) one finds IC50 data, which are given here for 23 compounds.

What all share (format): cell-based
The test system of one assay is A431 cells. Kind of assay: In vitro tumor cell proliferation assay (Cell Titer-Glo) in A431 cells. Particulars: Homo sapiens, A-431, 72 h, A431 human epidermoid carcinoma overexpressing HER1; 72 hours exposure; read-out: IC50, activities in A431 cell lines. In outline: (§1)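 Viability after 72 h drug exposure at 37 °C was read as CellTiter-Glo ATP luminescence, giving IC50. Cells (2.5×10^3/well, RPMI + 10% FBS) were compound-treated one day post-seeding, 0.1% DMSO final: A431 overexpresses HER1, N87 overexpresses HER2 and HER1.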

The test system of another assay is N87. Kind of assay: In vitro tumor cell proliferation assay (Cell Titer-Glo) in N87 cells. The note with it: N87 human gastric carcinoma overexpressing HER2 and HER1; 72 hours exposure; read-out: IC50, activities in N87 cell lines. The essentials:
as §1

For another assay, the system named is H1975 cells. Nature of the assay: In vitro tumor cell proliferation assay (Cell Titer-Glo) in H1975 cells. The note with it: NCI-H1975; H1975 human NSCLC expressing mutant HER1 (L858R,T790M); 72 hours exposure; read-out: IC50, activities in H 1975 cell lines. In outline: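 After 72 h compound exposure at 37° C (top 10 uM down to 64 pM, 0.1% DMSO), viability of EGFR L858R/T790M-mutant H1975 cells was read as ATP luminescence.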

Turning to `CN(C/C=C/C(=O)N1CCc2c(sc3ncnc(Nc4ccc5c(cnn5Cc5ccccn5)c4)c23)C1)C(C)(C)C` [Example 128, 7-{(2E)-4-[tert-butyl(methyl)amino]but-2-enoyl}-N-[1-(pyridin-2-ylmethyl)-1H-indazol-5-yl]-5,6,7,8-tetrahydropyrido [4′,3′:4,5]thieno[2,3-d]pyrimidin-4-amine], the IC50 in the assay on A431 cells is 0.2 to 1 µM; in the assay on N87, less than 0.2 µM; in the assay with H1975 cells, 0.2 to 1 µM.
`CN(C/C=C/C(=O)N1CCc2c(sc3ncnc(Nc4ccc5c(ccn5Cc5ccccn5)c4)c23)C1)C(C)(C)C` [Example 129]: the 50% inhibitory concentration (IC50) in the assay with A431 cells was 0.2 to 1 µM; with N87 it was less than 0.2 µM; in the assay with H1975 cells, less than 0.2 µM.
Regarding `O=C(C#CCCN1CCCCC1)N1CCc2c(sc3ncnc(Nc4ccc(OCc5ccccn5)c(Cl)c4)c23)C1` [Example 132, N-[3-chloro-4-(pyridin-2-ylmethoxy)phenyl]-7-(5-piperidin-1-ylpent-2-ynoyl)-5,6,7,8-tetrahydropyrido[4′,3′:4,5]-thieno[2,3-d]pyrimidin-4-amine], the half-inhibitory concentration (IC50) in the assay with A431 cells was 0.2 to 1 µM; in the assay on N87, less than 0.2 µM; with H1975 cells it was 0.2 to 1 µM.
In the case of `C#Cc1cccc(Nc2ncnc3sc4c(c23)CCN(C(=O)C#CCN(C)C)C4)c1` [Example 133, 7-[4-(dimethylamino)but-2-ynoyl]-N-(3-ethynylphenyl)-5,6,7,8-tetrahydropyrido [4′,3′:4,5]thieno[2,3-d]pyrimidin-4-amine], the IC50 in the assay with A431 cells is 0.2 to 1 µM; with N87, less than 0.2 µM; in the assay with H1975 cells, 0.2 to 1 µM.
Take `CN(C)CC#CC(=O)N1CCc2c(sc3ncnc(Nc4ccc(F)c(Cl)c4)c23)C1` [Example 134, N-(3-chloro-4-fluorophenyl)-7-[4-(dimethylamino)but-2-ynoyl]-5,6,7,8-tetrahydropyrido [4′,3′:4,5]thieno[2,3-d]pyrimidin-4-amine]: the half-maximal inhibitory concentration (IC50) with A431 cells was 0.2 to 1 µM; in the assay on N87 it was less than 0.2 µM; in the assay on H1975 cells, 0.2 to 1 µM.
Take `CN(C)CC#CC(=O)N1CCc2c(sc3ncnc(Nc4ccc(OCc5ccccn5)c(Cl)c4)c23)C1` [Example 135, N-[3-chloro-4-(pyridin-2-ylmethoxy)phenyl]-7-[4-(dimethylamino)but-2-ynoyl]-5,6,7,8-tetrahydropyrido [4′,3′:4,5]thieno[2,3-d]pyrimidin-4-amine]: the values for the half-inhibitory concentration (IC50) in the assay on A431 cells, in the assay on N87 and with H1975 cells were 0.2 to 1 µM, less than 0.2 µM and less than 0.2 µM, respectively.
`O=C(C#CCN1CCOCC1)N1CCc2c(sc3ncnc(Nc4ccc(OCc5ccccn5)c(Cl)c4)c23)C1` [Example 136, N-[3-chloro-4-(pyridin-2-ylmethoxy)phenyl]-7-(4-morpholin-4-ylbut-2-ynoyl)-5,6,7,8-tetrahydropyrido [4′,3′:4,5]thieno[2,3-d]pyrimidin-4-amine]: the figures for the IC50 in the assay on A431 cells, with N87 and in the assay with H1975 cells were 1 to 10 µM, less than 0.2 µM and 1 to 10 µM, respectively.
With `O=C(C#CCN1CCOCC1)N1CCc2c(sc3ncnc(Nc4ccc(OCc5cccc(F)c5)c(Cl)c4)c23)C1` [Example 139, N-{3-chloro-4-[(3-fluorobenzyl)oxy]phenyl}-7-(4-morpholin-4-ylbut-2-ynoyl)-5,6,7,8-tetrahydropyrido [4′,3′:4,5]thieno[2,3-d]pyrimidin-4-amine], the values for the IC50 with A431 cells, in the assay with N87 and with H1975 cells were 0.2 to 1 µM, less than 0.2 µM and 0.2 to 1 µM, respectively.
As for `O=C(C#CCCN1CCCCC1)N1CCc2c(sc3ncnc(Nc4ccc(F)c(Cl)c4)c23)C1` [Example 140, N-(3-chloro-4-fluorophenyl)-7-(5-piperidin-1-ylpent-2-ynoyl)-5,6,7,8-tetrahydropyrido [4′,3′:4,5]thieno[2,3-d]pyrimidin-4-amine], the IC50 with A431 cells is 0.2 to 1 µM; with N87, less than 0.2 µM; with H1975 cells, 0.2 to 1 µM.
Take `C#Cc1cccc(Nc2ncnc3sc4c(c23)CCN(C(=O)C#CCCN2CCCCC2)C4)c1` [Example 141, N-(3-ethynylphenyl)-7-(5-piperidin-1-ylpent-2-ynoyl)-5,6,7,8-tetrahydropyrido [4′,3′:4,5]thieno[2,3-d]pyrimidin-4-amine]: the half-maximal inhibitory concentration (IC50) in the assay with A431 cells was 0.2 to 1 µM; in the assay on N87 it was less than 0.2 µM; with H1975 cells, 0.2 to 1 µM.
`O=C(C#CCCN1CCCCC1)N1CCc2c(sc3ncnc(Nc4ccc(OCc5cccc(F)c5)c(Cl)c4)c23)C1` [Example 142, N-{3-chloro-4-[(3-fluorobenzyl)oxy]phenyl}-7-(5-piperidin-1-ylpent-2-ynoyl)-5,6,7,8-tetrahydropyrido [4′,3′:4,5]thieno[2,3-d]pyrimidin-4-amine]: the values for the IC50 in the assay with A431 cells, with N87 and in the assay on H1975 cells were 0.2 to 1 µM, less than 0.2 µM and 0.2 to 1 µM, respectively.
With `C=C(CN(CC)CC)C(=O)N1CCc2c(sc3ncnc(Nc4ccc(OCc5ccccn5)c(Cl)c4)c23)C1` [Example 143, N-[3-chloro-4-(pyridin-2-ylmethoxy)phenyl]-7-{2-[(diethylamino)methyl]acryloyl}-5,6,7,8-tetrahydropyrido[4′,3′:4,5]thieno[2,3-d]pyrimidin-4-amine], the figures for the IC50 in the assay on A431 cells, in the assay on N87 and in the assay with H1975 cells were 0.2 to 1 µM, less than 0.2 µM and 0.2 to 1 µM, respectively.
With `C=C(CN1CCOCC1)C(=O)N1CCc2c(sc3ncnc(Nc4ccc(OCc5ccccn5)c(Cl)c4)c23)C1` [Example 144], the IC50 in the assay on A431 cells was 1 to 10 µM; in the assay with N87 it was less than 0.2 µM; with H1975 cells, 1 to 10 µM.
Regarding `C=C(CN1CCOCC1)C(=O)N1CCc2c(sc3ncnc(Nc4ccc(F)c(Cl)c4)c23)C1` [Example 145, N-(3-chloro-4-fluorophenyl)-7-[2-(morpholin-4-ylmethyl)acryloyl]-5,6,7,8-tetrahydropyrido [4′,3′:4,5]thieno[2,3-d]pyrimidin-4-amine], the IC50 in the assay with A431 cells is 1 to 10 µM; in the assay on N87, 0.2 to 5 µM; in the assay on H1975 cells, 1 to 10 µM.
As to `C=C(CN1CCOCC1)C(=O)N1CCc2c(sc3ncnc(Nc4ccc(OCc5cccc(F)c5)c(Cl)c4)c23)C1` [Example 146, N-{3-chloro-4-[(3-fluorobenzyl)oxy]phenyl}-7-[2-(morpholin-4-ylmethyl)acryloyl]-5,6,7,8-tetrahydropyrido [4′,3′:4,5]thieno[2,3-d]pyrimidin-4-amine], the IC50 was 1 to 10 µM in the assay with A431 cells, less than 0.2 µM with N87 and 1 to 10 µM with H1975 cells.
Consider `C=C(CN(CC)CC)C(=O)N1CCc2c(sc3ncnc(Nc4ccc(F)c(Cl)c4)c23)C1` [Example 147, N-(3-chloro-4-fluorophenyl)-7-{2-[(diethylamino)methyl]acryloyl}-5,6,7,8-tetrahydropyrido [4′,3′:4,5]thieno[2,3-d]pyrimidin-4-amine], for which the IC50 in the assay with A431 cells is 0.2 to 1 µM; in the assay on N87 it was less than 0.2 µM; in the assay with H1975 cells, 1 to 10 µM.
`C#Cc1cccc(Nc2ncnc3sc4c(c23)CCN(C(=O)C(=C)CN(CC)CC)C4)c1` [Example 148, 7-{2-[(diethylamino)methyl]acryloyl}-N-(3-ethynylphenyl)-5,6,7,8-tetrahydropyrido [4′,3′:4,5]thieno[2,3-d]pyrimidin-4-amine]: the half-inhibitory concentration (IC50) in the assay with A431 cells was 1 to 10 µM; in the assay with N87 it was less than 0.2 µM; in the assay with H1975 cells, 1 to 10 µM.
In the case of `C=C(CN(CC)CC)C(=O)N1CCc2c(sc3ncnc(Nc4ccc(OCc5cccc(F)c5)c(Cl)c4)c23)C1` [Example 149, N-{3-chloro-4-[(3-fluorobenzyl)oxy]phenyl}-7-{2-[(diethylamino)methyl]acryloyl}-5,6,7,8-tetrahydropyrido [4′,3′:4,5]thieno[2,3-d]pyrimidin-4-amine], the half-inhibitory concentration (IC50) in the assay with A431 cells was 0.2 to 1 µM; in the assay with N87, less than 0.2 µM; in the assay on H1975 cells it was 0.2 to 1 µM.
For `CN(C)CC/C=C/C(=O)N1CCc2c(sc3ncnc(Nc4ccc(OCc5ccccn5)c(Cl)c4)c23)C1` [Example 150, 1-[4-[3-chloro-4-(pyridin-2-ylmethoxy)-phenylamino]-5,8-dihydro-6H-9-thia-1,3,7-triaza-fluoren-7-yl}-5-dimethylamino-pent-2-en-1-one], the IC50 with A431 cells, in the assay on N87 and in the assay with H1975 cells was less than 0.2 µM each time.
Take `O=C(/C=C/CCO)N1CCc2c(sc3ncnc(Nc4ccc(F)c(Cl)c4)c23)C1` [Example 151, (3E)-5-{4-[(3-chloro-4-fluorophenyl)amino]-5,8-dihydropyrido [4′,3′:4,5]thieno[2,3-d]pyrimidin-7(6H)-yl}-5-oxopent-3-en-1-ol]: the figures for the IC50 in the assay on A431 cells, in the assay on N87 and in the assay with H1975 cells were 1 to 10 µM, 0.2 to 5 µM and 1 to 10 µM, respectively.
For `O=C(/C=C/CCN1CCCC1)N1CCc2c(sc3ncnc(Nc4ccc(F)c(Cl)c4)c23)C1` [Example 152, N-(3-chloro-4-fluorophenyl)-7-[(2E)-5-pyrrolidin-1-ylpent-2-enoyl]-5,6,7,8-tetrahydropyrido [4′,3′:4,5]thieno[2,3-d]pyrimidin-4-amine], the results for the 50% inhibitory concentration (IC50) in the assay with A431 cells, in the assay with N87 and in the assay with H1975 cells were 1 to 10 µM, less than 0.2 µM and 1 to 10 µM, respectively.
On to `CN(C)CC/C=C/C(=O)N1CCc2c(sc3ncnc(Nc4ccc(F)c(Cl)c4)c23)C1` [Example 153], for which the IC50 in the assay with A431 cells is 1 to 10 µM; in the assay on N87, less than 0.2 µM; with H1975 cells, 1 to 10 µM.
As to `O=C(/C=C/CCN1CCCCC1)N1CCc2c(sc3ncnc(Nc4ccc(F)c(Cl)c4)c23)C1` [Example 154, N-(3-chloro-4-fluorophenyl)-7-[(2E)-5-piperidin-1-ylpent-2-enoyl]-5,6,7,8-tetrahydropyrido [4′,3′:4,5]thieno[2,3-d]pyrimidin-4-amine], the IC50 was 1 to 10 µM in the assay on A431 cells, less than 0.2 µM with N87 and 1 to 10 µM in the assay with H1975 cells.
